Source: BindingDB's records for doi:10.1021/jm900735p (Pharmacy School of Wenzhou Medical College, 2009)

Target: Xanthine dehydrogenase/oxidase (Rattus norvegicus, UniProt P22985)
Test: Inhibition of rat liver xanthine oxidase after 2 hrs by spectrophotometry

Xanthine dehydrogenase/oxidase, sequence (P22985 whole entry): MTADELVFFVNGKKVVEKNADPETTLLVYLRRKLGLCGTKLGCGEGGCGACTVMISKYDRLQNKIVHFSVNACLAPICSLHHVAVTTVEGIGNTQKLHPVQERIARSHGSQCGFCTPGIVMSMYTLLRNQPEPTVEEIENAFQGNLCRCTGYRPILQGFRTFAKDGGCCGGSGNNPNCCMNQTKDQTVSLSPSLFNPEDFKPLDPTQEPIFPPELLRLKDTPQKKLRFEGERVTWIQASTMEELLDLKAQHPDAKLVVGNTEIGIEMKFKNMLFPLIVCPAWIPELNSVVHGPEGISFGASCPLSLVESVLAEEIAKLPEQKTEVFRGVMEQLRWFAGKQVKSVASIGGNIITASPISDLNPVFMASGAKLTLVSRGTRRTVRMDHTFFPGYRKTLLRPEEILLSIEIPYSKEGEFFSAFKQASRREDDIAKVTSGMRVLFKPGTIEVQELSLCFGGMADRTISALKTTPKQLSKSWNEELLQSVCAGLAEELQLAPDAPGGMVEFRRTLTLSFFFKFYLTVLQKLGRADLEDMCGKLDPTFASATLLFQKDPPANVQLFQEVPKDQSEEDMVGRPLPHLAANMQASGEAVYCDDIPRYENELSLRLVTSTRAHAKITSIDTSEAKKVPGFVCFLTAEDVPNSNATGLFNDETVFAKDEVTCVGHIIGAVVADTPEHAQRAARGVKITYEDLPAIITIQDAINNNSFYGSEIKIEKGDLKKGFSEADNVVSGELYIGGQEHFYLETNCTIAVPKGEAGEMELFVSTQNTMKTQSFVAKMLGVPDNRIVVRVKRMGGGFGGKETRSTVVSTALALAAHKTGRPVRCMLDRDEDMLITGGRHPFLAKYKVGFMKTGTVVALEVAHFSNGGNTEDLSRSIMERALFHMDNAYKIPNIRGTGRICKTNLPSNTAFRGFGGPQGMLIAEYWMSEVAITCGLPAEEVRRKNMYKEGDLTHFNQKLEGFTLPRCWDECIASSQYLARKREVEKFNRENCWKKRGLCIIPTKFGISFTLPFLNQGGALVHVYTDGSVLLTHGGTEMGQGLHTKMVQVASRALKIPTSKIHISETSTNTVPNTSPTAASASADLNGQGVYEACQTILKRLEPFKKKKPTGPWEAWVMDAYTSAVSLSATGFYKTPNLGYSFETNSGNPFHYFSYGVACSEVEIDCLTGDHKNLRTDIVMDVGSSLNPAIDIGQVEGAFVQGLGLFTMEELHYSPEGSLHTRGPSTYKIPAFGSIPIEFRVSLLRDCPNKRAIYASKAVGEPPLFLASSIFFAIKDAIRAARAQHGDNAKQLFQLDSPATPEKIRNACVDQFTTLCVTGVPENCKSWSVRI

IC50	SMILES
80.3 µM	COc1cc(C2Oc3cc(-c4oc5cc(O)cc(=O)c-5c(O)c4O)ccc3OC2CO)ccc1O (configuration not stated) [Dehydrosilylbin]
80.3 µM	COc1cc([C@@H]2Oc3cc(C4Oc5cc(O)cc(O)c5C(O)C4=O)ccc3O[C@H]2CO)ccc1O (some centres not stated) [SMR000857154]
